Data from US20190059368A1, “3,5-DIMETHOXYSTILBENE ANALOGS AND USES THEREOF” (The United States of America, as represented by the …, priority 2017, published 2019).
≈ marks a conversion by molar mass, not a printed value. Where two headings read alike, the source gives them in different places. Marks after values point to notes of the source that are not given here.

Key:
[1] = tested on: larvae of ORL and PR strains of Ae. aegypti; assay type: in vivo; settings: for Percent Mortality: larvae, 24 h
Description: (§1) Further tests were performed on compounds 11 and 12 to determine their effect on larvae and adult mosquitoes. The compounds were tested in the standard bioassays using the Orlando (ORL), pesticide-susceptible strain and the Puerto Rico (PR), pyrethroid-resistant strain of Ae. aegypti. The ORL strain has been in continuous colony since 1952 with no pesticide exposure while the resistant PR strain was colonized from egg papers collected near San Juan, PR in June, 2012. The PR strain is available as a resistant reference strain through BEIResources/CDC. Mortality was determined in the larval assays at four different concentrations (1, 0.5, 0.25, and 0.1 μg/μl) and three concentrations for adults (6.25%, 3.125%, and 1.56%). Mortality was recorded 24 h post-application, and in all assays, a negative solvent and a positive control using permethrin were utilized; tests were done in triplicate. Assays were conducted according to published procedures as described in Wanner, J. et al. (Curr. Bioact. Compd. 2015, 11, 13).

[2] = tested on: Cryptococcus neoformans ATCC 90113; assay: Antimicrobial microplate assay (modified CLSI); assay type: cell-based; settings: Cryptococcus neoformans, ATCC90113; Cr. neoformans
Description: (§2) All organisms were obtained from the American Type Culture Collection (ATCC; Manassas, Va., USA) and included the fungi Cryptococcus neoformans ATCC 90113 and the bacteria Staphylococcus aureus ATCC 29213, methicillin-resistant S. aureus ATCC 33591 (MRSA), and Mycobacterium intracellulare ATCC 23068. All organisms were tested using modified versions of the CLSI (formerly NCCLS) methods. For all organisms excluding My. intracellulare, optical density was used to monitor growth. Medium supplemented with 5% AlamarBlue® (BioSource International, Camarillo, Calif., USA) was utilized for growth detection of My. intracellulare. Samples (dissolved in DMSO) were serially diluted in 20% DMSO/saline and transferred (10 μl) in duplicate to 96-well flat-bottom microplates. Inocula were prepared by correcting the OD630 of microbe suspensions in Sabouraud Dextrose for Cr. neoformans, cation-adjusted Mueller-Hinton (Difco) at pH 7.3 for Staphylococcus spp., and 5% AlamarBlue® (BioSource International) in Middlebrook 7H9 broth with OADC enrichment, pH=7.0 for My. intracellulare, to afford an assay volume of 200 μl and final target inocula of: Cr. neoformans.: b 1.5×10^3, My. intracellulare: 2.0×10^6, and Staphylococcus spp.,: 5.0×10^5 CFU/ml. Final sample test concentrations were 1/100th the DMSO stock concentration. Drug controls (Ciprofloxacin (ICN Biomedicals, Ohio, USA) for bacteria and Amphotericin B (ICN Biomedicals) for fungi) were included in each assay. All organisms were read at either 530 nm using the Biotek Powerwave XS plate reader (Bio-Tek Instruments, VT) or 544ex1590em (My. intracellulare) using the Polarstar Galaxy Plate Reader (BMG LabTechnologies, Germany) before and after incubation: Staphylococcus spp. at 35° C. for 16-20 h, Cr. neoformans at 35° C. for 70-74 h, and My. intracellulare at 37° C. and 10% CO2 for 70-74 h. IC50 Values (concentrations that afford 50% inhibition relative to controls) werecalculated using XLfit 4.2 software (IDBS, Alameda, Calif.) using fit model 201.

[3] = tested on: Ae. aegypti larvae; assay: Larvicidal bioassay against 1-day-old Ae. aegypti larvae (screening and dose-response); assay type: in vivo, Aedes aegypti
Description: Analogs were screened for activity against Ae. aegypti larvae following a bioassay system described in Ali, A., et al. (J. Med. Entomol. 2014, 51, 824). Ae. aegypti larvae used in these studies were from a laboratory colony maintained at the Mosquito and Fly Research Unit at the Center for Medical, Agricultural and Veterinary Entomology, USDA-ARS, Gainesville, Fla. For larval bioassays, the eggs were hatched and the larvae were maintained at a temperature of 27±2° C. and 60±10% RH with a photoperiod regimen of 12:12 hour (Light:Dark). Five 1-day-old Ae. aegypti larvae were added into a droplet of H2O to each well of 24-well plates (BD Labware, Franklin Lakes, N.J., USA) by use of a disposable 22.5-cm Pasteur pipette. A quantity of 50 μl of larval diet (2% slurry of 3:2 beef liver powder (Now Foods, Bloomingdale, Ill., USA) and Brewer's yeast (Lewis Laboratories Ltd., Westport, Conn., USA) was added to each well using a Finnpipette stepper (Thermo Fisher, Vantaa, Finland). All chemicals tested were diluted in DMSO. A quantity of 11 μl of the test chemical was added to the labeled wells, while 11 μl of DMSO was added to control treatments. After the treatment application, the plates were swirled in clockwise and counterclockwise motions and front and back and side to side five times to ensure even mixing of the chemicals. Larval mortality was recorded 24 hours post-treatment. […] Three dosages, 100, 50, and 25 ppm, were used in the screening bioassay to determine the larvicidal activity and each treatment was replicated twice. […] Each treatment was replicated ten times. LC50 Values for larvicidal data were calculated using SAS, Proc Probit. Control mortality was corrected using the Abbott's formula.

[4] = tested on: adults of ORL and PR strains of Ae. aegypti; assay: Adult mosquito assay, ORL and PR strains; assay type: in vivo; settings: for Percent Mortality: adults, 6.25%, 24 h
Description: as §1

[5] = tested on: Mycobacterium intracellulare ATCC 23068; assay: Antimicrobial microplate assay (modified CLSI, AlamarBlue); assay type: cell-based; settings: ATCC23068, My. intracellulare
Description: as §2, with “Drug controls (Ciprofloxacin (ICN Biomedicals, Ohio, USA) for bacteria and Amphotericin B (ICN Biomedicals) for fungi) were included in each assay.” left out

[6] = tested on: Staphylococcus aureus ATCC 29213; assay: Antimicrobial microplate assay (modified CLSI); assay type: cell-based; settings: ATCC29213, S. aureus
Description: as §2, with “Drug controls (Ciprofloxacin (ICN Biomedicals, Ohio, USA) for bacteria and Amphotericin B (ICN Biomedicals) for fungi) were included in each assay.” left out

[7] = tested on: methicillin-resistant S. aureus ATCC 33591 (MRSA); assay: Antimicrobial microplate assay (modified CLSI); assay type: cell-based; settings: Staphylococcus aureus
Description: as §2, with “Drug controls (Ciprofloxacin (ICN Biomedicals, Ohio, USA) for bacteria and Amphotericin B (ICN Biomedicals) for fungi) were included in each assay.” left out

[8] = tested on: Meloidogyne incognita eggs; assay: M. incognita egg immersion assay (hatch and mobility of hatched J2); assay type: in vivo; settings: for Percent mobile J2, assay 1: 7 days
Description: (§3) Two types of assays were used to investigate activity against M. incognita: i) eggs were immersed in solutions of the test compounds, and ii) second-stage juveniles (J2) previously hatched from eggs were immersed in the test solutions. These assays were conducted with procedures similar to those in Meyer, et al. (J. Nematol. 2006, 38, 333). M. incognita race 1 (originally isolated in 2013 from a field in Maryland) was grown in the greenhouse on pepper (Capsicum annuum L.) cultivar PA-136. Egg masses were hand-picked from plant roots, rinsed three times with sterile distilled H2O, and agitated in 0.6% NaClO for 3.5 minutes to separate and surface-sterilize eggs. The eggs were rinsed in sterile distilled H2O and stored overnight at 4° C. before use in egg immersion assays. To collect J2 for direct immersion into the test compounds, sterilized eggs were placed into a hatching chamber made with a Spectra/Mesh Nylon Filter (openings 25 μm in diameter; Spectrum Laboratories Inc., Rancho Dominguez, Calif., USA) in an autoclaved dish. J2 that passed through the filter within 3 days were used immediately for assays.
(§4) The assays were conducted in 96-well polystyrene plates. For the assays with immersed eggs, each well received approximately 50 eggs in 35 μl of sterile deionized water (SDW). For assays with previously hatched J2, a suspension of approximately 50 J2 in 35 μl of SDW was placed into each well. Each well then received 165 μl of treatment or control. The solvent used to dissolve the test chemicals was a 1:1:1 mixture referred to herein as CTD: equal parts Cremophor® EL Castor Oil (BASF Corporation, Vandalia, Ill., USA), Tween 80® (Sigma-Aldrich, St. Louis, Mo., USA), and DMSO (Sigma-Aldrich). A high and low rate of each compound was tested. After addition to the nematode suspensions in the wells, the low and high rates were 83.3 and 166.7 μg/ml of each test compound, respectively, dissolved in 0.5% and 1.0% of each of the three combined solvents. Controls were CTD equivalent to the low and high rates, and SDW. Because of the large number of treatments, the test compounds were divided into two groups for the egg immersion assays. The compounds tested in the egg immersion Assay 1 were 3, 6a, 6e, 6f, 6g, 6n, 7a, 7c, 7e, 7f, 7n, 11, 12, 16, and 17. The compounds tested in the egg immersion Assay 2 were 6b, 6h, 6i, 6j, 6k, 6l , 7b, 7g, 7h, 7i, 7j, 7k, 7l, and 7m (data not shown). Test compounds used for assays with previously hatched J2 were selected based on results with the egg assays. The five compounds tested were 6b, 6f, 6g, 6i, and 7k, high and low rates.
(§5) Each polystyrene culture plate was covered with a plastic adhesive sheet (Excel Scientific, Inc., Victorville, Calif., USA) and incubated at 25° C. Ten wells (water controls) or five wells (all other treatments) were used per treatment in each assay. In egg immersion assays, total numbers of hatched J2, and numbers of mobile and immobile J2, were counted after 2 and 7 days incubation in the test compounds. In the first assay with previously hatched J2, the numbers of mobile and immobile J2 were counted after 1 and 2 days incubation, the treatments removed and replaced with a SDW rinse, and 2 days later the mobile vs. immobile J2 counted again. In assays with 6g and 7k, high rates and counts were made on Days 1, 2, 4, and 6, without a SDW rinse.
Data from the M. incognita assays were analyzed with the statistical package JMP 11.2.0 (SAS Institute, Cary, N.C., USA). Differences among numbers of hatched J2 in each treatment, and among percentage of mobile J2 per treatment (number mobile J2/total J2×100), were determined by the ANOVA, and means were compared using Tukey Kramer's adjustment for multiple comparisons (P<0.05). For percent mobile J2 on Day 2 in egg immersion Assays 1 and 2, and Day 4 with the five compounds in the J2 immersion assay, data were log10 (x+1)-transformed before analysis. Data presented are nontransformed means.

[9] = tested on: Meloidogyne incognita second-stage juveniles (J2); assay: M. incognita assay with previously hatched J2 immersed in test solutions; settings: in vivo
Description: as §3
as §4, with “The five compounds tested were 6b, 6f, 6g, 6i, and 7k, high and low rates.” left out
as §5, with “Ten wells (water controls) or five wells (all other treatments) were used per treatment in each assay.” left out, “In assays with 6g and 7k, high rates and counts were made on Days 1, 2, 4, and 6, without a SDW rinse.” left out
Data from the M. incognita assays were analyzed with the statistical package JMP 11.2.0 (SAS Institute, Cary, N.C., USA). Differences among numbers of hatched J2 in each treatment, and among percentage of mobile J2 per treatment (number mobile J2/total J2×100), were determined by the ANOVA, and means were compared using Tukey Kramer's adjustment for multiple comparisons (P<0.05). […]

[10] = 1-day-old larvae, mortality 24 hours post-treatment

Which results are given for `COc1cc(/C=C\c2ccc(O)c(CC=C(C)C)c2)cc(OC)c1` [Compound 12, (Z)-4-(3,5-dimethoxystyryl)-2-(3-methylbut-2-en-1-yl)phenol]?
effectiveness against larvae (in words) ([1]; ORL and PR strains): highly effective; Percent Mortality ([1]; ORL strain, 0.1 μg/μl): 66.7 ± 23.1%; Percent Mortality ([1]; ORL strain, 0.25 μg/μl): 93.3 ± 11.5%; Percent Mortality ([1]; ORL strain, 0.5 μg/μl): 93.3 ± 11.5%; Percent Mortality ([1]; ORL strain, 1.0 μg/μl): 93.3 ± 11.5%; Percent Mortality ([1]; PR strain, 0.1 μg/μl): 73.3 ± 11.5%; Percent Mortality ([1]; PR strain, 0.25 μg/μl): 73.3 ± 11.5%; Percent Mortality ([1]; PR strain, 0.5 μg/μl): 93.3 ± 11.5%; Percent Mortality ([1]; PR strain, 1.0 μg/μl): 93.3 ± 11.5%; IC50 [2]: 41.8 µM; MIC [2]: 61.7 µM (≈ 20 µg/mL); LC50 (LD50 converted to μM) ([3]; 1-day-old larvae, 24 hours): 49.93 µM; LD50 (95% CI) [3, 10]: 16.2^b ppm; LD90 (95% CI) [3, 10]: 37.9 ppm; larvicidal activity (in words) ([3]; screening at 100, 50 and 25 ppm): high larvicidal activity; effectiveness against adult mosquitoes (in words) ([4]; both strains): somewhat effective; IC50 [5]: 50.4 µM; MIC [5]: 61.7 µM (≈ 20 µg/mL); IC50 [6]: 17 µM; MIC [6]: 30.8 µM (≈ 10 µg/mL); IC50 [7]: 13 µM; MIC [7]: 30.8 µM (≈ 10 µg/mL)

Which “Percent Mortality” value ([1]; ORL strain, 0.1 μg/μl) does the source give for `CC1(C)C(C=C(Cl)Cl)C1C(=O)OCc1cccc(Oc2ccccc2)c1` (stereo not drawn) [Permethrin, permethrin, reference compound] here?
Its value is 100%.

And the “Percent Mortality” value ([1]; PR strain, 0.1 μg/μl)?
The value was 93.3 ± 11.5%.

What about the “Percent Mortality” value ([4]; ORL strain) of the same compound?
Its value is 100%.

What about the “Percent Mortality” value ([4]; PR strain) of the same compound?
The value was 85 ± 10%.

With `COc1cc(/C=C/c2ccc(Cl)cc2)cc(OC)c1C` [Compound 6f, (E)-1,3-dimethoxy-5-(4-chlorostyryl)-2-methylbenzene] as the compound, how does the “Percent mobile J2, assay 1” value ([8]; high rate (166.7 μg/ml)) read?
Its value is 71.3%.

And the “Percent mobile J2, assay 1” value ([8]; low rate (83.3 μg/ml))?
The value was 93.9%.

And the “effect on mobility of J2 hatched from eggs immersed in solutions (in words)” value ([8]; in vivo)?
The value was “some suppressive effect on mobility”.

What about the “effect on mobility of J2 previously hatched in water and immersed directly (in words)” value [9] of the same compound?
The value was “only 6g and 7k had an effect on J2 mobility”.
